Eight compounds from patent publication US20230287051A1, “INHIBITORS OF COMPLEMENT FACTOR C3 AND THEIR MEDICAL USES” (ZP SPV 3 K/S, priority 2020, published 2023) can be followed below.

pIC50: −log10 of the molar value. Numbered stars: 1 amine (or outer) side, 2 acyl side, 3 side chain; on linkers, the order of the positions; unused ones are H or OH. Bridge positions count the residues as written; N and C are the ends. Square brackets hold non-standard residues; d marks the D form. Side chains are listed from the residue outwards. Peptide text beside a SMILES is read from it. * marks the point of attachment. Trp(1-Me) = Cn1cc(C[C@H](N)C(=O)O)c2ccccc21; C18 diacid = O=C(O)CCCCCCCCCCCCCCCCC(=O)*; γGlu = O=C(O)[C@H](CCC(=O)[*:2])N[*:1]; AEEA = NCCOCCOCC(=O)O; CH2 = C([*:1])[*:2]; Sar = CNCC(=O)O

The test concerns classical complement pathway. Nature of the test: In vitro haemolysis assay (inhibition of classical complement pathway). The format is cell-based. Particulars: human serum, sensitized sheep RBC, 30 minutes at 37° C., absorbance at 405 nm, n=>2; read-out: IC50, inhibition of hemolysis. As for the experimental part:
The in vitro effect of some of the compounds described herein was assessed by measuring their inhibitory effect of the classical complement pathway in a haemolysis assay.
Briefly, compounds described herein and reference compounds were dissolved in DMSO and diluted in Tris/Casein Assay Buffer (10 mM Tris, 145 mM NaCl, 0.5 mM MgCl2, 0.15 mM CaCl2, and 0.1% W/V casein, adjusted to pH 7.4) as 9-point serial dilutions in a 96-well plate. Sensitized sheep red blood cells (RBC) coated with rabbit anti-sheep erythrocyte antiserum (Complement Technology, Inc., TX, USA) were washed in Tris/asein Assay Buffer. 50 μL from each well of diluted compound was added to a 96-well plate containing 50 μL diluted human serum (Complement Technology, Inc., TX, USA) and incubated for 15 minutes at room temperature. The serum dilution factor was optimized for every serum batch to obtain 70-90% of maximal haemolysis using the protocol. Then 50 μL sensitized sheep RBCs were added to all wells ([…]).
After 30 minutes of incubation at 37° C. with gentle agitation, the reaction was stopped by addition of 50 μL Tris STOP Buffer per well (10 mM EDTA, 10 mM Tris, 145 mM NaCl adjusted to pH 7.4). The RBCs were then removed by centrifugation and the resulting supernatant measured for hemolysis by absorbance at 405 nm.
The response was normalized relative to a positive and negative control (vehicle) to calculate the IC50 (nM) from the concentration response curve using the 4-parameter logistic (4PL) nonlinear model for curve fitting (Table 2). All values are based on n=>2 independent determinations.
In the case of `CC[C@H](C)[C@@H]1NC(=O)[C@@H](NC(=O)[C@H](Cc2ccccc2)NC(=O)[C@H](CCC(=O)O)NC(=O)[C@H](CO)NC(C)=O)CSCSC[C@@H](C(=O)N[C@H](C(=O)NCC(=O)N[C@@H](C)C(=O)N[C@@H](CCC(=O)O)C(=O)N[C@@H](CO)C(N)=O)[C@@H](C)O)NC(=O)[C@H](CCCNC(=N)N)NC(=O)[C@H](Cc2c[nH]cn2)NC(=O)[C@H](CCC(=O)O)NC(=O)CNC(=O)[C@H](Cc2c[nH]c3ccccc23)NC(=O)[C@H](CC(=O)O)NC(=O)[C@H](CCC(N)=O)NC(=O)[C@H](Cc2cn(C)c3ccccc23)NC1=O` [Compound 1, Ac-SEF[C(1)]I[[1-Me-Trp]QDWGEHR[C(1)]TGAES-[NH2]] (Ac-SEFCI[Trp(1-Me)]QDWGEHRCTGAES-NH2; linker 4-14 via CH2), the pIC50 is greater than 7.00.

In the case of `CC[C@H](C)[C@@H]1NC(=O)[C@@H](NC(=O)[C@H](Cc2ccccc2)NC(=O)[C@H](CCC(=O)O)NC(=O)[C@H](CO)NC(C)=O)CSCSC[C@@H](C(=O)N(C)CC(=O)N[C@@H](CCC(=O)O)C(=O)NCC(=O)N[C@@H](CCC(=O)O)C(=O)NCCOCCOCC(=O)NCCOCCOCC(=O)N[C@@H](CCCCNC(=O)CC[C@H](NC(=O)CNC(=O)CC[C@H](NC(=O)CCCCCCCCCCCCCCCCC(=O)O)C(=O)O)C(=O)O)C(N)=O)NC(=O)[C@H](CCCNC(=N)N)NC(=O)[C@H](Cc2c[nH]cn2)NC(=O)[C@H](CCC(=O)O)NC(=O)CNC(=O)[C@H](Cc2c[nH]c3ccccc23)NC(=O)[C@H](CC(=O)O)NC(=O)[C@H](CCC(N)=O)NC(=O)[C@H](Cc2cn(C)c3ccccc23)NC1=O` [Compound 2, Ac-SEF[C(1)]I[1-Me-Trp]QDWGEHR[C(1)][Sar]EGE[Peg3][Peg3]-K([17-Carboxy-heptadecanoyl][yGlu]G[yGlu])-NH2] (Ac-SEFCI[Trp(1-Me)]QDWGEHRC[Sar]EGE[AEEA][AEEA]K([γGlu-Gly-γGlu-C18 diacid])-NH2; linker 4-14 via CH2), the pIC50 was greater than 6.30.

As to `CC[C@H](C)[C@@H]1NC(=O)[C@@H](NC(=O)[C@H](Cc2ccccc2)NC(=O)[C@H](CCC(=O)O)NC(=O)[C@H](CO)NC(C)=O)CSCSC[C@@H](C(=O)N(C)CC(=O)N[C@@H](CCC(=O)O)C(=O)NCCOCCOCC(=O)NCCOCCOCC(=O)N[C@@H](CCCCNC(=O)CC[C@H](NC(=O)CNC(=O)CC[C@H](NC(=O)CCCCCCCCCCCCCCCCC(=O)O)C(=O)O)C(=O)O)C(N)=O)NC(=O)[C@H](CCCNC(=N)N)NC(=O)[C@H](Cc2c[nH]cn2)NC(=O)[C@H](CCC(=O)O)NC(=O)CN(C)C(=O)[C@H](Cc2c[nH]c3ccccc23)NC(=O)[C@H](CC(=O)O)NC(=O)[C@H](CCC(N)=O)NC(=O)[C@H](Cc2cn(C)c3ccccc23)NC1=O` [Compound 7] (Ac-SEFCI[Trp(1-Me)]QDW[Sar]EHRC[Sar]E[AEEA][AEEA]K([γGlu-Gly-γGlu-C18 diacid])-NH2; linker 4-14 via CH2), the pIC50 is greater than 6.30.

On to `CC[C@H](C)[C@@H]1NC(=O)[C@@H](NC(=O)[C@H](Cc2ccccc2)NC(=O)[C@H](CCC(=O)O)NC(C)=O)CSCSC[C@@H](C(=O)N[C@H](C(=O)N[C@@H](CCC(=O)O)C(=O)N[C@@H](C)C(=O)NCCOCCOCC(=O)NCCOCCOCC(=O)N[C@@H](CCCCNC(=O)CC[C@H](NC(=O)CNC(=O)CC[C@H](NC(=O)CCCCCCCCCCCCCCCCC(=O)O)C(=O)O)C(=O)O)C(N)=O)[C@@H](C)O)NC(=O)[C@H](CCCNC(=N)N)NC(=O)[C@H](Cc2c[nH]cn2)NC(=O)[C@H](CCC(=O)O)NC(=O)CN(C)C(=O)[C@H](Cc2c[nH]c3ccccc23)NC(=O)[C@H](CC(=O)O)NC(=O)[C@H](CCC(N)=O)NC(=O)[C@H](Cc2cn(C)c3ccccc23)NC1=O` [Compound 12, Ac-EF[C(1)]I[1-Me-Trp]QDW[Sar]EHR[C(1)]TEA[Peg3][Peg3]-K([17-Carboxy-heptadecanoyl][yGlu]G[yGlu])-NH2] (Ac-EFCI[Trp(1-Me)]QDW[Sar]EHRCTEA[AEEA][AEEA]K([γGlu-Gly-γGlu-C18 diacid])-NH2; linker 3-13 via CH2), for which the pIC50 is greater than 7.00.

On to `CC[C@H](C)[C@@H]1NC(=O)[C@@H](NC(=O)[C@@H](NC(=O)[C@@H](Cc2ccc(O)cc2)NC(C)=O)[C@@H](C)CC)CSCSC[C@@H](C(=O)N[C@H](C(=O)N[C@@H](CCC(=O)O)C(=O)NCC(=O)N[C@@H](CCC(=O)O)C(=O)NCCOCCOCC(=O)N[C@@H](CCC(=O)O)C(=O)N[C@@H](CO)C(=O)N[C@@H](CCCCNC(=O)CC[C@H](NC(=O)CCCCCCCCCCCCCCCCC(=O)O)C(=O)O)C(N)=O)[C@@H](C)O)NC(=O)[C@H](CCCNC(=N)N)NC(=O)[C@H](Cc2c[nH]cn2)NC(=O)[C@H](CCC(=O)O)NC(=O)CN(C)C(=O)[C@H](Cc2c[nH]c3ccccc23)NC(=O)[C@H](CC(=O)O)NC(=O)[C@H](CCC(N)=O)NC(=O)[C@H](Cc2cn(C)c3ccccc23)NC1=O` [Compound 15, Ac-{d}YI[C(1)]I[1-Me-Trp]QDW[Sar]EHR[C(1)]TEGE[Peg3]ES-K([17-Carboxy-heptadecanoyl][yGlu])-NH2] (Ac-[dY]ICI[Trp(1-Me)]QDW[Sar]EHRCTEGE[AEEA]ESK([γGlu-C18 diacid])-NH2; linker 3-13 via CH2), for which the pIC50 was greater than 6.60.

Turning to `CC[C@H](C)[C@@H]1NC(=O)[C@@H](NC(=O)[C@H](Cc2ccccc2)NC(=O)[C@@H](NC(=O)[C@H](CCC(N)=O)NC(=O)[C@H](CO)NC(=O)[C@H](CCC(=O)O)NC(C)=O)C(C)C)CSCSC[C@@H](C(=O)N[C@H](C(=O)N[C@@H](CCC(=O)O)C(=O)NCC(=O)N[C@@H](CCC(=O)O)C(=O)NCCOCCOCC(=O)NCCOCCOCC(=O)N[C@@H](CCCCNC(=O)CC[C@H](NC(=O)CNC(=O)CC[C@H](NC(=O)CCCCCCCCCCCCCCCCC(=O)O)C(=O)O)C(=O)O)C(N)=O)[C@@H](C)O)NC(=O)[C@H](CCCNC(=N)N)NC(=O)[C@H](Cc2c[nH]cn2)NC(=O)[C@H](CCC(=O)O)NC(=O)CN(C)C(=O)[C@H](Cc2c[nH]c3ccccc23)NC(=O)[C@H](CC(=O)O)NC(=O)[C@H](CCC(N)=O)NC(=O)[C@H](Cc2cn(C)c3ccccc23)NC1=O` [Compound 23, Ac-ESQVF[C(1)]I[1-Me-Trp]QDW[Sar]EHR[C(1)]TEGE[Peg3][Peg3]-K([17-Carboxy-heptadecanoyI][yGlu]G[yGlu])-NH2] (Ac-ESQVFCI[Trp(1-Me)]QDW[Sar]EHRCTEGE[AEEA][AEEA]K([γGlu-Gly-γGlu-C18 diacid])-NH2; linker 6-16 via CH2), the pIC50 was greater than 7.00.

For the compound `CC[C@H](C)[C@@H]1NC(=O)[C@@H](NC(=O)[C@H](Cc2ccccc2)NC(=O)[C@@H](NC(=O)[C@H](CCC(N)=O)NC(=O)[C@H](CCC(=O)O)NC(=O)[C@H](CO)NC(=O)[C@H](CCC(=O)O)NC(C)=O)C(C)C)CSCSC[C@@H](C(=O)N[C@H](C(=O)N[C@@H](CCC(=O)O)C(=O)NCC(=O)N[C@@H](CCC(=O)O)C(=O)NCCOCCOCC(=O)NCCOCCOCC(=O)N[C@@H](CCCCNC(=O)CC[C@H](NC(=O)CNC(=O)CC[C@H](NC(=O)CCCCCCCCCCCCCCCCC(=O)O)C(=O)O)C(=O)O)C(N)=O)[C@@H](C)O)NC(=O)[C@H](CCCNC(=N)N)NC(=O)[C@H](Cc2c[nH]cn2)NC(=O)[C@H](CCC(=O)O)NC(=O)CN(C)C(=O)[C@H](Cc2c[nH]c3ccccc23)NC(=O)[C@H](CC(=O)O)NC(=O)[C@H](CCC(N)=O)NC(=O)[C@H](Cc2cn(C)c3ccccc23)NC1=O` [Compound 24, Ac-ESEQVF[C(1)]I[1-Me-Trp]QDW[Sar]EHR[C(1)]TEGE[Peg3][Peg3]-K([17-Carboxy-heptadecanoyl][yGlu]G[yGlu])-NH2] (Ac-ESEQVFCI[Trp(1-Me)]QDW[Sar]EHRCTEGE[AEEA][AEEA]K([γGlu-Gly-γGlu-C18 diacid])-NH2; linker 7-17 via CH2), the pIC50 was greater than 7.00.

As for `CC[C@H](C)[C@@H]1NC(=O)[C@@H](NC(=O)[C@H](Cc2ccccc2)NC(=O)[C@H](C)NC(=O)[C@H](CCC(N)=O)NC(=O)[C@H](CCC(=O)O)NC(=O)[C@H](CO)NC(C)=O)CSCSC[C@@H](C(=O)N[C@H](C(=O)N[C@@H](CCC(=O)O)C(=O)NCC(=O)N[C@@H](CCC(=O)O)C(=O)NCCOCCOCC(=O)NCCOCCOCC(=O)N[C@@H](CCCCNC(=O)CC[C@H](NC(=O)CNC(=O)CC[C@H](NC(=O)CCCCCCCCCCCCCCCCC(=O)O)C(=O)O)C(=O)O)C(N)=O)[C@@H](C)O)NC(=O)[C@H](CCCNC(=N)N)NC(=O)[C@H](Cc2c[nH]cn2)NC(=O)[C@H](CCC(=O)O)NC(=O)CN(C)C(=O)[C@H](Cc2c[nH]c3ccccc23)NC(=O)[C@H](CC(=O)O)NC(=O)[C@H](CCC(N)=O)NC(=O)[C@H](Cc2cn(C)c3ccccc23)NC1=O` [Compound 25, Ac-SEQAF[C(1)]I[1-Me-Trp]QDW[Sar]EHR[C(1)]TEGE[Peg3][Peg3]-K([17-Carboxy-heptadecanoyl][yGlu]G[yGlu])-NH2] (Ac-SEQAFCI[Trp(1-Me)]QDW[Sar]EHRCTEGE[AEEA][AEEA]K([γGlu-Gly-γGlu-C18 diacid])-NH2; linker 6-16 via CH2), the pIC50 was greater than 7.00.

By pIC50 is commonly meant −log10 of the IC50, conventionally taken in molar units.
